Experimental data taken from ChEMBL document CHEMBL1201862, “PubChem BioAssay data set” (2004).
Calls of active or inactive are those of the source.

Tests used:
[1] = molecular target: T1, Replicative DNA helicase DnaB (Mycobacterium tuberculosis, UniProt P9WMR3); assay: DnaB intein splicing inhibitors, dose response, biochemical, cell-free fluorescence (AID 449749); format: functional
T1 sequence (P9WMR3 whole entry): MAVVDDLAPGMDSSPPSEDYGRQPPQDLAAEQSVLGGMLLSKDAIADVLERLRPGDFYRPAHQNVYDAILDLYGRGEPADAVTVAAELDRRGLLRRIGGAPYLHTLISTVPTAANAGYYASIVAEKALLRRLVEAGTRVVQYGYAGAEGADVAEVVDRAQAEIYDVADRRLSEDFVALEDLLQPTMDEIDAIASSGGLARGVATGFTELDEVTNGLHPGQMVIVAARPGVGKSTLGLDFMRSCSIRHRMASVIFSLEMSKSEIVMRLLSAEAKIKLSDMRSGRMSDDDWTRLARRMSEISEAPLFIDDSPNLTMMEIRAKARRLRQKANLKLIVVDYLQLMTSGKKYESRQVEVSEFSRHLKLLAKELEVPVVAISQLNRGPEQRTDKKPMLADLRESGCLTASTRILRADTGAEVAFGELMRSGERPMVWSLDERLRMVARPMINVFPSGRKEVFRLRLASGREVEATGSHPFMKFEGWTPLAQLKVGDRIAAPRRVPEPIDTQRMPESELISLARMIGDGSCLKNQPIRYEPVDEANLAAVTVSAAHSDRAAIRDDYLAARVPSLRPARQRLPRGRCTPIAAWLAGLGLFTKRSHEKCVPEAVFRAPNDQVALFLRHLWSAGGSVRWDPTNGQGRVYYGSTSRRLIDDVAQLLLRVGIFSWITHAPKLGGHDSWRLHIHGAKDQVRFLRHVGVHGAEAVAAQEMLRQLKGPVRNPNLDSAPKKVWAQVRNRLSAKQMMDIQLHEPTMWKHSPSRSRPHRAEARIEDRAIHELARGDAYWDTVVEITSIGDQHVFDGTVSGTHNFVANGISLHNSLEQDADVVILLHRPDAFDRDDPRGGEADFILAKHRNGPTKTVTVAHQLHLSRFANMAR

Caspase-3 = molecular target: T2, Caspase-3 (Homo sapiens, UniProt P42574); format: functional;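 also: Dose-response selectivity test against caspase-3 for candidate inhibitors of sentrin-specific proteases (SENPs)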
T2 sequence (P42574 whole entry): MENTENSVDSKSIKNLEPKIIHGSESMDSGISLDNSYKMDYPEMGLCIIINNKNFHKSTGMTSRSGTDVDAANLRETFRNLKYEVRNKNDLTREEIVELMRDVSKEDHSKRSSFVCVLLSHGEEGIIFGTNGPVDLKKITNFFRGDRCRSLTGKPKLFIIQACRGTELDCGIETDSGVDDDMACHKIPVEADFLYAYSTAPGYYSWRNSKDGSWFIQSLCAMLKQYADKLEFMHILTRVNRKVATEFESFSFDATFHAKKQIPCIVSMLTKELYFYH

[2] = molecular target: T3, Sentrin-specific protease 8 (Homo sapiens, UniProt Q96LD8); format: functional;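 also: luminescence read-out of SENP8 inhibition, dose-response confirmation following an ultra-high-throughput screen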
T3 sequence (Q96LD8 whole entry): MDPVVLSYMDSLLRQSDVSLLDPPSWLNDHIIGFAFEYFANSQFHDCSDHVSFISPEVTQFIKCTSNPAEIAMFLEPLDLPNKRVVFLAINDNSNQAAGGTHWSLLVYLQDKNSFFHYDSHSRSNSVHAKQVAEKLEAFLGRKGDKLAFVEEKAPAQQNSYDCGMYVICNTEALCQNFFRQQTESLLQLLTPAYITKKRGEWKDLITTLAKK

Streptococcus = assay: Group A Streptococcus viability loss, dose response, counter-screen for streptokinase expression inhibitor project, luminescence, BacTiterGlo (AID 1915); format: functional, organism-based;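 also: potency for reduction of bacterial viability or growth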
[3] = test system: Streptococcus sp. 'group A'; assay: growth inhibition of control SK(-) GAS strain, dose response, counter-screen for streptokinase expression inhibitor project, luminescence, kanamycin, BacTiterGlo, confirmation (AID 1900); format: functional, organism-based

Structure (SMILES)	AC50 [1]	IC50 (Caspase-3)	IC50 [2]	EC50 (Streptococcus)	EC50 [3]
Cn1nc(-c2ccc(Cl)cc2)nc2c(=O)n(C)c(=O)nc1-2	0.0409 µM (active)				
SC1=Nc2ccccc2C1	1.77 µM (active)				
NS(=O)(=O)c1ccc(NC(=O)COC(=O)c2ccc([N+](=O)[O-])s2)cc1		10.2 µM (active)	4.33 µM (active)		
CCCCNc1cc(NC(C)=O)cc2cc(OC)c(OC)cc12		20.7 µM (active)	18.3 µM (active)		
COc1ccc(C(NC(=O)C(C)C)c2ccc3cccnc3c2O)cc1 (stereo not given)				> 150 µM (not active)	7.99 µM (active)
O=C(Cc1ccc([N+](=O)[O-])cc1)N/N=C/c1ccc([N+](=O)[O-])o1				21.7 µM (active)	11.9 µM (active)
